Laboratory results: US8119616B2, “Formulation of quinazoline based EGFR inhibitors containing a zinc binding moiety” (Curis, Inc., priority 2007, dated 2012)
Like-named read-outs stand apart in the source and are kept apart here.

What was measured:
[1] = tested on: Breast_SkBr3; assay: Cell proliferation assay (ATPlite); type: cell-based; settings: 72 hours, 0.5% fetal bovine serum
Experimental: (§1) A representative number of compounds were assayed against several different cell lines using the cell proliferation assay:
(§2) Cell Proliferation Assay:
(§3) Cancer cell lines were plated at 5,000 to 10,000 per well in 96-well flatted bottomed plates with various concentration of compounds. The cells were incubated with compounds for 72 hours in the presence of 0.5% of fetal bovine serum. Growth inhibition was accessed by adenosine triphosphate (ATP) content assay using Perkin Elmer ATPlite kit. ATPlite is an ATP monitoring system based on firefly luciferase. Briefly, 25 μl of mammalian cell lysis solution was added to 50 μl of phenol red-free culture medium per well to lyse the cells and stabilize the ATP. 25 μl of substrate solution was then added to the well and subsequently the luminescence was measured.

[2] = tested on: Colon_HCT116; assay: Cell proliferation assay (ATPlite); type: cell-based; settings: 72 hours, 0.5% fetal bovine serum
Experimental: as §1, §2, §3

[3] = tested on: Epidermoid_A431; assay: Cell proliferation assay (ATPlite); type: cell-based; settings: 72 hours, 0.5% fetal bovine serum
Experimental: as §1, §2, §3

[4] = tested on: Lung_H292; assay: Cell proliferation assay (ATPlite); type: cell-based; settings: 72 hours, 0.5% fetal bovine serum
Experimental: as §1, §2, §3

[5] = tested on: Lung_H358; assay: Cell proliferation assay (ATPlite); type: cell-based; settings: 72 hours, 0.5% fetal bovine serum
Experimental: as §1, §2, §3

[6] = tested on: Lung_H460; assay: Cell proliferation assay (ATPlite); type: cell-based; settings: 72 hours, 0.5% fetal bovine serum
Experimental: as §1, §2, §3

[7] = tested on: Pancreas_BxPC3; assay: Cell proliferation assay (ATPlite); type: cell-based; settings: 72 hours, 0.5% fetal bovine serum
Experimental: as §1, §2, §3

[8] = tested on: Pancreas_Capan1; assay: Cell proliferation assay (ATPlite); type: cell-based; settings: 72 hours, 0.5% fetal bovine serum
Experimental: as §1, §2, §3

[9] = tested on: Pancreas_HPAC; assay: Cell proliferation assay (ATPlite); type: cell-based; settings: 72 hours, 0.5% fetal bovine serum
Experimental: as §1, §2, §3

[10] = tested on: Pancreas_MiaPaCa2; assay: Cell proliferation assay (ATPlite); type: cell-based; settings: 72 hours, 0.5% fetal bovine serum
Experimental: as §1, §2, §3

[11] = tested on: Pancreas_PANC1; assay: Cell proliferation assay (ATPlite); type: cell-based; settings: 72 hours, 0.5% fetal bovine serum
Experimental: as §1, §2, §3

[12] = tested on: Prostate_22RV1; assay: Cell proliferation assay (ATPlite); type: cell-based; settings: 72 hours, 0.5% fetal bovine serum
Experimental: as §1, §2, §3

[13] = tested on: Prostate_PC3; assay: Cell proliferation assay (ATPlite); type: cell-based; settings: 72 hours, 0.5% fetal bovine serum
Experimental: as §1, §2, §3

[14] = tested on: various cancer cell lines; assay: Anti-proliferative activity in various cancer cell lines (Table D, FIG. 3); type: cell-based; settings: five major types of cancer (lung, breast, prostate, colon, and pancreas)
Experimental: as §2, §3
Table D illustrates the potency of compounds of the invention.

[15] = tested on: HCT-116 (colon) and SKBr3 (breast) cancer cells; assay: Induction of apoptosis (Caspase 3&7 activity); type: cell-based; settings: HCT-116 and SKBr3, 24 hours
[16] = male, CD-1, mouse, in vivo, ip, 7 days
Experimental: 7-day-multiple dosing MTD in mice • a. CD-1 mice, male, 24-26 gram • b. Dosing at 0, 50, 100, 200 mg/kg/d ip • c. 6 mice per group • d. Blood and organs will be collected 2 hr after last dosing on Day 7 for hematology
(§4) Stock solution is diluted with 30% CAPTISOL before use.

[17] = both, Sprague Dawley, rat, in vivo, iv, 8 days
Experimental: Single dosing MTD in rats • a. Sprague Dawley, male and female, 240-260 gram • b. Dosing at 0, 25, 50, 100, 200 mg/kg, iv infusion 5 min • c. 6 rats per group (3 male and 3 female)
as §4

With `C#Cc1cccc(Nc2ncnc3cc(OC)c(OCCCCCCC(=O)NO)cc23)c1` [Compound 12, 7-(4-(3-ethynylphenylamino)-7-methoxyquinazolin-6-yloxy)-N-hydroxyheptanamide] the IC50 [1] was 100 to 1000 nM, the IC50 [2] was 100 to 1000 nM and the IC50 [3] was 100 to 1000 nM. It also gave an IC50 [4] of less than 100 nM, an IC50 [5] of 100 to 1000 nM and an IC50 [6] of 100 to 1000 nM. It also gave an IC50 [7] of less than 100 nM, an IC50 [8] of 100 to 1000 nM and an IC50 [9] of 1000 to 10000 nM. It also gave an IC50 [10] of 100 to 1000 nM, an IC50 [11] of 100 to 1000 nM and an IC50 [12] of 100 to 1000 nM. For the same compound, the IC50 [13] was 100 to 1000 nM, the “response of cell lines compared with a combination of erlotinib and SAHA” value [14] was “responded better to compound 12 than a combination of erlotinib and SAHA” and the “cell apoptosis as measured by increased Caspase 3&7 activity” value [15] was 4-11 times. For the same compound, the “dose that did not result in a significant change in body weight” value [16] was “up to 100 mg/kg” and the “dose that did not result in a significant change in body weight” value [17] was “up to 200 mg/kg”.
